ChEMBL document CHEMBL1201862, “PubChem BioAssay data set” (2004)
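Tested at 5 concentrations; 48 h exposure; 96-well plates; endpoints linearly interpolated, else capped at highest concentration. GI50 marks 50% less growth.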 Activity calls are given as the source filed them. Cut-off read from the data, not from the text of the source: active = GI50 up to about 1.1 µM and inactive = higher.

Tests used:
Assay in all cases: growth of human tumour cells (NCI), 48 h
CAKI-1 = test system: CAKI-1
MDA-MB-435 = test system: MDA-MB-435
SK-MEL-2 = test system: SK-MEL-2
DU-145 = test system: DU-145
BT-549 = test system: BT-549
UACC-62 = test system: UACC-62
MDA-N = test system: MDA-N
TK-10 = test system: TK-10
MCF7 = test system: MCF7
ACHN = test system: ACHN
SN12C = test system: SN12C
HCT-116 = test system: HCT-116
HL-60 = test system: HL-60
M19-MEL = test system: M19-MEL
NCI-H226 = test system: NCI-H226
RPMI-8226 = test system: RPMI-8226
A498 = test system: A498
PC-3 = test system: PC-3
OVCAR-5 = test system: OVCAR-5
EKVX = test system: EKVX

In the case of `CC[C@@]1(OP(=O)(O)O)C(=O)OCc2c1cc1n(c2=O)Cc2cc3ccccc3nc2-1`, the GI50 (CAKI-1) is reported as 0.0467 µM (active), the GI50 (MDA-MB-435) is reported as 0.339 µM (active) and the GI50 (SK-MEL-2) is reported as 2.94 µM (inactive). For the same compound, the GI50 (DU-145) was 0.0488 µM (active), the GI50 (BT-549) was 0.201 µM (active) and the GI50 (UACC-62) was 0.0381 µM (active). The GI50 (MDA-N) was 0.537 µM (active), the GI50 (TK-10) was 2.55 µM (inactive) and the GI50 (MCF7) was 0.0358 µM (active). The GI50 (ACHN) was 0.0405 µM (active), the GI50 (SN12C) was 0.0883 µM (active) and the GI50 (HCT-116) was 0.157 µM (active). For the same compound, the GI50 (HL-60) was 0.0306 µM (active), the GI50 (M19-MEL) was 1.01 µM (active) and the GI50 (NCI-H226) was 0.179 µM (active). For the same compound, the GI50 (RPMI-8226) was 0.0718 µM (active), the GI50 (A498) was 0.0817 µM (active) and the GI50 (PC-3) was 0.32 µM (active). The GI50 (OVCAR-5) was 0.231 µM (active) and the GI50 (EKVX) was 1.12 µM (inactive).

For `Cc1cc2c(cc1C)[n+]([O-])c(C(=O)/C=C/c1ccc3c(c1)OCO3)c(C)[n+]2[O-]`, the GI50 (CAKI-1) was 61.1 µM (inactive), the GI50 (MDA-MB-435) was > 100 µM (inactive) and the GI50 (SK-MEL-2) was 27.9 µM (inactive). The GI50 (DU-145) was > 80.5 µM (inactive), the GI50 (BT-549) was 69.3 µM (inactive) and the GI50 (UACC-62) was 29.9 µM (inactive). For the same compound, the GI50 (MDA-N) was > 100 µM (inactive), the GI50 (TK-10) was 23.9 µM (inactive) and the GI50 (MCF7) was > 100 µM (inactive). For the same compound, the GI50 (ACHN) was 40.9 µM (inactive), the GI50 (SN12C) was > 78.7 µM (inactive) and the GI50 (HCT-116) was 53.8 µM (inactive). For the same compound, the GI50 (HL-60) was > 100 µM (inactive), the GI50 (M19-MEL) was > 100 µM (inactive) and the GI50 (NCI-H226) was 86.5 µM (inactive). The GI50 (RPMI-8226) was > 100 µM (inactive), the GI50 (A498) was 71.6 µM (inactive) and the GI50 (PC-3) was > 100 µM (inactive). The GI50 (OVCAR-5) was > 100 µM (inactive) and the GI50 (EKVX) was > 70 µM (inactive).

In the case of `CCC1(OC(=O)CN2CCN(CCO)CC2)C(=O)OCc2c1cc1n(c2=O)Cc2cc3ccccc3nc2-1` (stereo not drawn), the GI50 (CAKI-1) is reported as 0.047 µM (active), the GI50 (MDA-MB-435) is reported as 1.15 µM (inactive) and the GI50 (SK-MEL-2) is reported as 4.25 µM (inactive). The GI50 (DU-145) was 0.0822 µM (active), the GI50 (BT-549) was 0.736 µM (active) and the GI50 (UACC-62) was 0.0759 µM (active). The GI50 (MDA-N) was 1.63 µM (inactive), the GI50 (TK-10) was 8.49 µM (inactive) and the GI50 (MCF7) was 0.107 µM (active). The GI50 (ACHN) was 0.0667 µM (active), the GI50 (SN12C) was 0.125 µM (active) and the GI50 (HCT-116) was 0.417 µM (active). The GI50 (HL-60) was 0.286 µM (active), the GI50 (M19-MEL) was 0.789 µM (active) and the GI50 (NCI-H226) was 0.329 µM (active). For the same compound, the GI50 (RPMI-8226) was 0.962 µM (active), the GI50 (A498) was 0.514 µM (active) and the GI50 (PC-3) was 0.405 µM (active). For the same compound, the GI50 (OVCAR-5) was 1.1 µM (active) and the GI50 (EKVX) was 4.51 µM (inactive).

In the case of `C=C1C(=O)OC2/C=C(\C)C(OC(C)=O)C3OC3C(C)(O)CC(OC(=O)/C(C)=C/C)C12` (stereo not drawn), the GI50 (CAKI-1) is reported as 2.38 µM (inactive), the GI50 (SK-MEL-2) is reported as 6.59 µM (inactive) and the GI50 (UACC-62) is reported as 11 µM (inactive). For the same compound, the GI50 (TK-10) was 11.9 µM (inactive), the GI50 (ACHN) was 13.5 µM (inactive) and the GI50 (SN12C) was 20 µM (inactive). For the same compound, the GI50 (HCT-116) was 2.16 µM (inactive), the GI50 (HL-60) was 2.51 µM (inactive) and the GI50 (M19-MEL) was 8.49 µM (inactive). For the same compound, the GI50 (NCI-H226) was 10 µM (inactive), the GI50 (RPMI-8226) was 4.91 µM (inactive) and the GI50 (A498) was 15.8 µM (inactive). For the same compound, the GI50 (OVCAR-5) was 17.4 µM (inactive) and the GI50 (EKVX) was 18.3 µM (inactive).

With `CC1=C(C(=O)Nc2ccccc2)C(c2ccc(C(C)C)cc2)C(C(=O)Nc2ccccc2)=C(C)N1` the GI50 (CAKI-1) was 21.9 µM (inactive), the GI50 (SK-MEL-2) was 13.8 µM (inactive) and the GI50 (UACC-62) was 13.6 µM (inactive). The GI50 (TK-10) was 48.2 µM (inactive), the GI50 (ACHN) was 17.3 µM (inactive) and the GI50 (SN12C) was 13.6 µM (inactive). The GI50 (HCT-116) was 12.7 µM (inactive), the GI50 (HL-60) was 9.59 µM (inactive) and the GI50 (M19-MEL) was 15.6 µM (inactive). For the same compound, the GI50 (NCI-H226) was 21.3 µM (inactive), the GI50 (RPMI-8226) was 6.71 µM (inactive) and the GI50 (A498) was 24 µM (inactive). The GI50 (OVCAR-5) was 17.3 µM (inactive) and the GI50 (EKVX) was 25.3 µM (inactive).
